Source: publication PMC8968063, “Key features of inhibitor binding to the human mitochondrial pyruvate carrier hetero-dimer” (Molecular Metabolism, 2022)
Like-named read-outs stand apart in the source and are kept apart here.

Columns and labels:
human MPC1L/MPC2 complex [1] = molecular target: T1, human MPC1L/MPC2 complex (Homo sapiens, UniProt O95563+P0DKB6); assay: nano-DSF thermostability shift assay, purified MPC1L/MPC2; format: binding; settings: inhibitor 100 μM; for Tm, nano-DSF: unliganded 51.9 ± 0.1, mean ± s.d., 2 biological repeats
T1 construct: eight-histidine tag (C, cleaved yes); TEV protease cleavage site (part stays on MPC2 after digestion) (C, cleaved yes); made in house; host or cells: Saccharomyces cerevisiae SHY15 (mpc triple deletion strain), purified from mitochondria
T1 sequence (P0DKB6 2-136): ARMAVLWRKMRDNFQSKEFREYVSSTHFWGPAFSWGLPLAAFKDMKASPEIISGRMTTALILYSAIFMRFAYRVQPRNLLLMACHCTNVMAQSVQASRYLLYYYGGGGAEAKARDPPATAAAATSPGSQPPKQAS
T1 sequence (O95563 2-127): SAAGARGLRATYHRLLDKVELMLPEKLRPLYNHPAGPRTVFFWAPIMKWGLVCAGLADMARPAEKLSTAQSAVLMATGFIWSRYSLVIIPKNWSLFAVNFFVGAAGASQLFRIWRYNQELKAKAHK
Experimental: Ligand binding was also assessed using dye-free nano differential scanning fluorimetry (nano-DSF) to monitor fluorescence changes due to altered environments of tryptophan and tyrosine residues during unfolding. Protein samples in buffer containing 20 mM Tris–HCl pH 7.4, 150 mM NaCl, 0.1% (w/v) LMNG, 0.1 mg/mL TOCL, in the presence or absence of the indicated concentrations of small molecule inhibitors, were loaded into capillary tubes, and a temperature ramp of 5 °C/min was applied. The intrinsic fluorescence was measured using the NanoTemper Prometheus NT.48 (NanoTemper, München, Germany).

[2] = molecular target: T2, human MPC1L/MPC2 hetero-dimer (Homo sapiens, UniProt O95563+P0DKB6); assay: Inhibition of [14C]-pyruvate homo-exchange in MPC1L/MPC2 proteoliposomes; format: biochemical; settings: MPC1L/MPC2 proteoliposomes, 50 μM [14C]-pyruvate homo-exchange, mean ± s.d.; read-out: IC50 of pyruvate transport inhibition
T2 construct: eight-histidine tag (C, cleaved yes); TEV protease cleavage site (part stays on MPC2 after digestion) (C, cleaved yes); made in house; host or cells: Saccharomyces cerevisiae SHY15 (mpc triple deletion strain), purified from mitochondria
T2 sequence (P0DKB6 2-136): T1 sequence (P0DKB6 2-136)
T2 sequence (O95563 2-127): T1 sequence (O95563 2-127)
Experimental: Egg L-α-phosphatidylcholine 99% (w/v) (Avanti Polar Lipids, AL, USA) and TOCL were mixed in a 20:1 (w/w) ratio, dried under a stream of nitrogen and washed once with methanol before being dried again. Lipids were hydrated in 20 mM Tris–HCl, pH 8.0, 50 mM NaCl to a concentration of 12 mg/mL. Unlabeled pyruvate was added as a freshly made concentrated stock at a final concentration of 5 mM for internalisation. Lipids were solubilised with 1.2% (v/v) pentaethylene glycol monodecyl ether (Sigma) and freshly purified protein was added at a lipid-to-protein ratio of 250:1 (w/w). Samples were incubated on ice for 5 min, then liposomes were formed by the step-wise removal of pentaethylene glycol monodecyl ether by five additions at 20 min intervals of 60 mg Bio-Beads SM-2 (Bio-Rad, Watford, UK) with gentle mixing at 4 °C. A final addition of 480 mg Bio-Beads was incubated with the samples overnight. Proteoliposomes were first separated from the Bio-Beads by passage through empty spin columns (Bio-Rad, Watford, UK) and subsequently pelleted at 120,000×g for 60 min. The proteoliposomes were resuspended with a thin needle in 150 μL of their supernatant after the rest of the supernatant was removed.
The time course of pyruvate homo-exchange was measured at room temperature. The transport was initiated by diluting proteoliposomes 200-fold into external buffer, 20 mM MES, pH 6.4, 50 mM NaCl, containing 50 μM [^14C]-pyruvate (500,000 dpm, Perkin Elmer, MA, USA). The reaction (0–30 s) was terminated by rapid dilution into 8 volumes of ice-cold internal buffer (20 mM Tris–HCl, pH 8.0, 50 mM NaCl), followed by rapid filtration through cellulose nitrate 0.45 μm filters (Millipore, Gillingham, UK) and washing with an additional 8 volumes of buffer. The filters were dissolved in Ultima Gold scintillation liquid (Perkin Elmer, MA, USA) and the radioactivity was counted with a Perkin Elmer Tri-Carb 2800 RT liquid scintillation counter. […] The data analysis was performed with non-linear regression fittings using GraphPad Prism 7.0d ([Inhibitor] vs response, variable slope). The specific uptake rates were calculated based on the amount of protein used in reconstitutions, as estimated from bicinchoninic acid assay. The biological repeats represent independent proteoliposome preparations using protein from independent purifications.

human MPC1L/MPC2 complex [3] = molecular target: T1, human MPC1L/MPC2 complex; assay: CPM thermostability shift assay, purified MPC1L/MPC2; format: binding; settings: for Tm, CPM assay: unliganded 51.3 ± 0.2, mean ± s.d., 3 biological repeats; for ΔTm at 100 µM: read-out: ∆Tm, CPM assay (thermal shift compared to no-ligand control)
Experimental: The assessment of ligand binding was performed via shifts in protein thermostability upon binding using thermal denaturation on a rotary quantitative PCR (qPCR) instrument (Qiagen Rotor-Gene Q 2plex HRM, Venlo, Netherlands), as previously described. In this method, cysteine residues, buried within the protein structure, become solvent-exposed during denaturation in a temperature ramp and then react with 7-diethylamino-3-(4-maleimidophenyl)-4-methylcoumarin (CPM) to form fluorescent-adducts. Briefly, a CPM working solution was prepared by diluting the CPM stock (5 mg/mL in dimethyl sulfoxide) 50-fold into assay buffer (20 mM Tris–HCl, pH 7.4, 150 mM NaCl, 0.1% (w/v) LMNG, 0.1 mg/mL TOCL) and incubated for 10 min at room temperature. In each analysis, performed in duplicates or triplicates, 3 μg of purified MPC was diluted into 45 μL of assay buffer containing the desired concentration of the inhibitor then incubated for 10 min on ice. Next, 5 μL of the CPM working solution were added. Samples were incubated on ice for an additional 10 min then subjected to a temperature ramp of 5.6 °C/min. The fluorescence increase was monitored with the HRM channel of the instrument (excitation at 440–480 nm, emission at 505–515 nm). Unfolding profiles were analysed with the Rotor-Gene Q software 2.3, and the peaks of their derivatives were used to determine the apparent melting temperature.

[4] = molecular target: T3, recombinant human MPC1L/MPC2 (Homo sapiens, UniProt O95563+P0DKB6); assay: Electrospray mass spectrometry of MPC1L/MPC2 after reaction with inhibitors or sulfhydryl modifiers
T3 construct: MPC1L (2–136); MPC2 (2–137); eight-histidine tag (C, cleaved yes); TEV protease cleavage site (part stays on MPC2 after digestion) (C, cleaved yes); made in house; host or cells: Saccharomyces cerevisiae SHY15 (mpc triple deletion strain), purified from mitochondria
T3 sequence (P0DKB6 2-136 limits assumed): T1 sequence (P0DKB6 2-136)
T3 sequence (O95563 2-127 limits assumed): T1 sequence (O95563 2-127)
Experimental: Different MPC inhibitors (Table1) or sulfhydryl reagents were first incubated with MPC1L/MPC2 in a folded state, then the protein molecular masses were measured by electrospray mass spectrometry. The MPC subunits (10 μg) were resolved by reverse-phase HPLC on a PLRP-S column (1.0 mm i.d. X 75 mm; VARIAN) using a gradient of 2-propanol in a solvent system compatible with the recovery of membrane proteins (Carroll et al., 2009). The eluate (50 μL/min) was introduced into a QTRAP4000 (SCIEX) mass spectrometer operating in positive ion single MS mode. The instrument was scanned from 700 m/z to 2300 m/z after calibration with ions from a mixture of 1.0 μM of myoglobin and 1.5 μM trypsinogen. Molecular masses were obtained by reconstruction of the spectra of multiply charged ions using PeakView (SCIEX).

mammalian MPCs = settings: cited from earlier work
[5] = MPC1L/MPC2 after reaction with compound

Compound | Tm, CPM assay (human MPC1L/MPC2 complex [3]; inhibitor 100 μM) [°C] | ΔTm at 100 µM (human MPC1L/MPC2 complex [3]; inhibitor 100 μM) [°C] | further results
CCN(CC)C(=O)/C(C#N)=C/c1cc(O)c(O)c([N+](=O)[O-])c1 [Entacapone, (2E)-2-cyano-3-(3,4-dihydroxy-5-nitrophenyl)-N,N-diethylprop-2-enamide] | – | – | ∆Tm, nano-DSF (human MPC1L/MPC2 complex [1]): 6.3 ± 1.1 °C; Tm, nano-DSF (human MPC1L/MPC2 complex [1]): 58.2 ± 1.0 °C; IC50 [2]: 630 ± 53 nM
O=C1NC(=O)C(=Cc2ccc(-c3ccccc3[N+](=O)[O-])o2)C(=O)N1 [Compound 11] | 57.7 ± 2.1 | – | ΔTm at 100 µM (human MPC1L/MPC2 complex [3]): 6.4 ± 2.3 °C
CN1C(=O)NC(=O)/C(=C/c2ccc(-c3ccccc3[N+](=O)[O-])o2)C1=O [Compound 12] | 60.4 ± 0.7 | 9.1 ± 0.9 | –
CN(CCOc1ccc(CC2SC(=O)NC2=O)cc1)c1ccccn1 (stereo not drawn) [Rosiglitazone, rosiglitazone] | 56.6 ± 0.3 | 5.3 ± 0.5 | –
N#C/C(=C/c1ccc(-c2ccc(F)cc2)o1)C(=O)O [Compound 4] | 60.4 ± 1.3 | 9.1 ± 1.5 | –
N#C/C(=C/c1ccc(-c2ccccc2[N+](=O)[O-])o1)C(=O)O [Compound 7] | 67.8 ± 1.2 | 16.5 ± 1.4 | Mass difference (observed vs calculated), MPC1L (2–136) [4, 5]: 0.5 Da; Mass difference (observed vs calculated), MPC1L (5–136) [4, 5]: 0.9 Da; Mass difference (observed vs calculated), MPC2 (2–137) [4, 5]: 1.6 Da; Covalent modification of MPC protomers (molecular mass change) ([4]; folded MPC1L/MPC2 incubated with compound, ESI-MS): no molecular mass differences; IC50 [2]: 5.4 ± 1.1 nM
COc1ccc(/C=C(/C#N)C(=O)O)cc1 [Compound 1] | 60.4 ± 1.0 | 9.1 ± 1.2 | –
O=C(O)C(F)=Cc1ccccc1 [α-fluorocinnamate] | – | – | Potency relative to α-cyano-cinnamate (times less potent) (mammalian MPCs): 1,000 times
N#C/C(=C/c1ccc(-c2cccc([N+](=O)[O-])c2)o1)C(=O)O [Compound 9] | 63.0 ± 1.8 | 11.7 ± 2 | –
CCc1ccc(C(=O)COc2ccc(CC3SC(=O)NC3=O)cc2)nc1 (stereo not drawn) [Mitoglitazone, mitoglitazone] | 56.7 ± 0.6 | 5.4 ± 0.8 | ∆Tm, nano-DSF (human MPC1L/MPC2 complex [1]): 1.9 ± 0.5 °C; Tm, nano-DSF (human MPC1L/MPC2 complex [1]): 53.8 ± 0.4 °C
O=C(O)C(=Cc1ccc(-c2ccccc2[N+](=O)[O-])o1)C(=O)O [Compound 10] | 51.2 ± 0.9 | -0.1 ± 1.1 | ∆Tm, CPM assay (thermal shift compared to no-ligand control) (human MPC1L/MPC2 complex [3]; inhibitor 100 μM): No thermal shift
